One series deals with cholesterol biosynthesis. Description: Inhibition of cholesterol biosynthesis in vitro (rat liver). It is filed as cell-based. The conditions noted are these: Rattus norvegicus, AA, rat liver, mean, read-out: Inhibition of incorporation of 1-^14 C-acetate (AA). The source says:
|Inhibition of cholesterol biosynthesis in vitro (rat liver). In- |hibitory effect of suloctidil and clofibrate on the incorpora- |tion of 1-^14 [NT] and 2-^14 C-mevalonate (MVA). |are mean values and range, expressed in % of inhibition. Unless |otherwise stated, n = 3.

For a further series, the system named is Hist. In words: Antispasmodic activity, Hist.
Another series deals with guinea pig atria's. In words: Protective activity against anoxia (guinea pig atria). More on the design: key: scale: + = 10 to 20% increase in survival time. The conditions noted are these: increase in survival time. The source says:
(5) guinea pig atria's;
+ = increase in survival time of 10 to 20%

In series [1] the test system is spontaneously hypertensive rat. In words: Antihypertensive activity (spontaneously hypertensive rat). It is filed as in vivo. The conditions noted are these: 15 mg/kg per os. As for the experimental part:
(3) spontaneously hypertensive rat; 15 mg/kg per os;
± reduction of systolic pressure up to 10 mm of Hg
+ reduction of systolic pressure of 10 to 20 mm Hg
++ reduction of systolic pressure of at least 20 mm of Hg

Another series concerns BaCl2. In words: Antispasmodic activity, BaCl2.
For a further series, the system named is Ac.chol. Description: Antispasmodic activity, Ac.chol.
A further series in a line: DL50 mouse p.o. The conditions noted are these: in vivo, po, limits of reliability (p : 0.95) in brackets. The source says:
(1) the limits of reliability (p : 0.95) are given in brackets.

The subject of series [2] is occluding thrombosis of the femoral artery. Description: Prevention of arterial thrombosis in dogs. It is filed as in vivo, dog. As for the experimental part:
In animals, 1-(4-isopropylthiophenyl)-2-n-octylaminopropanol reduces thromboformation in arteries and veins.
Thrombosis was induced in the femoral
artery of anesthetized dogs by a 30 min perfusions, in a
catheterized area of the vessel, of a solution of pronase.
Drugs administrations were made at 24 h intervals, for 5 days
the last dosage being given 30 min before anesthesia.

`CCOC(=O)C(C)(C)Oc1ccc(Cl)cc1` [Clofibrate, reference compound]: the inhibition at 100 µM with cholesterol biosynthesis (10^-4 M) amounted to 47.4%. Also, the inhibition at 10 µM with cholesterol biosynthesis (10^-5 M) was determined as 4.2%.
Take `CCCCCCCCNC(C)C(O)c1ccc(SCC)cc1` (stereo not shown) [No 13]: in the series with Hist., the “Antispasmodic activity CE 100, Hist.” value was 100 μ g γ 60 ml. The “Protective activity against anoxia” value in the series with guinea pig atria's is recorded as 0. In addition, the Anti-hypertensive activity entry in series [1] was “++ (reduction of systolic pressure of at least 20 mm of Hg)”. Also, the “Antispasmodic activity CE 100, BaCl2” value in the series on BaCl2 is 100 μ g γ 60 ml. Further, the “Antispasmodic activity CE 100, Ac.chol.” value with Ac.chol. is given as 200 μ g γ 60 ml. Further, the LD50 (in general, the dose expected to kill half of the subjects tested) in the series “DL50 mouse p.o.” was 1750 mg/kg.
With `CCCCCCCCNC(CC)C(O)c1ccc(SCC)cc1` (stereo not shown) [No 20], the “Antispasmodic activity CE 100, Hist.” value in the series with Hist. is on record as 200 μ g γ 60 ml. In addition, the “Protective activity against anoxia” value in the series on guinea pig atria's was found to be 0. Also, the Anti-hypertensive activity in series [1] is recorded as 0. Moreover, in the series with BaCl2, the “Antispasmodic activity CE 100, BaCl2” value is 100 μ g γ 60 ml. In addition, the “Antispasmodic activity CE 100, Ac.chol.” value with Ac.chol. is listed as 100 μ g γ 60 ml. Further, the LD50 in “DL50 mouse p.o.” was approximately 2450 mg/kg.
Take `CC(=O)Oc1ccccc1C(=O)O` [Acetylsalicylic acid, reference compound]: the “n dogs with occluding thrombosis” value in series [2] (5 × 100 mg/kg p.o., n = 10, controls 10 of 16, * α = 0.05) was 1. In series [2] (suloctidil 5 times 5 mg/kg i.m., acetylsalicylic acid 5 times 100 mg/kg p.o.), the “incidence of occluding thrombosis of the femoral artery (in words)” value is “also effective in these conditions”.
Take `CCCCNC(CC)C(O)c1ccc(SC)cc1` (stereo not shown) [No 17]: the “Antispasmodic activity CE 100, Hist.” value in the series with Hist. is given as 1000 μ g γ 60 ml. In the series with guinea pig atria's, the “Protective activity against anoxia” value is reported as 0. Further, the Anti-hypertensive activity result in series [1] is given as “+ (reduction of systolic pressure of 10 to 20 mm Hg)”. Also, the “Antispasmodic activity CE 100, BaCl2” value with BaCl2 is given as 1000 μ g γ 60 ml. In addition, in the series with Ac.chol., the “Antispasmodic activity CE 100, Ac.chol.” value is recorded as 1000 μ g γ 60 ml. Moreover, the LD50 in the series “DL50 mouse p.o.” came to 122 mg/kg.
